Patent US8372846B2, “Co-crystals and pharmaceutical compositions comprising the same” (Vertex Pharmaceuticals Incorporated, priority 2006, dated 2013)

Experiment: Solubility analyses in simulated intestinal fluid (HPLC of supernatant; solid form by XRPD)
Type: physicochemical
Details: simulated intestinal fluid (pH 6.8); for XRPD (solid form): room temp.; for C, mg/mL Control: room temperature, VX-950 equivalents
Method: An aliquot of the sample was placed in a tube and then an aqueous medium was added. At set time points, an aliquot of supernatant was withdrawn, filtered through 0.45 PTFE micron filter (Millex, LCR, Millipore) and processed for high performance liquid chromatography (HPLC) analysis (Agilent 1100; Palo Alto, Calif., USA). The system was equipped with an autosampler set at 25° C. For the sample handling, an aliquot of the sample was diluted with acetonitrile at 1 to 1 by v/v ratio. The samples were run isocratically with the detector set at 270 nm. The column was XTerra® Phenyl column 150 mm×4.6 mm, 3.5 μm Particle Size (P/N 186001144) (Waters, Milford, Mass., USA). The mobile phase was potassium phosphate buffer (10 mM, pH=7.0):methanol at 60:40 (v/v) ratio. The run was done at the flow-rate of 1 mL/min and was completed within 15 min.

CCC[C@H](NC(=O)[C@@H]1[C@H]2CCC[C@H]2CN1C(=O)[C@@H](NC(=O)[C@@H](NC(=O)c1cnccn1)C1CCCCC1)C(C)(C)C)C(=O)C(=O)NC1CC1 [VX-950 alone]
XRPD (solid form) (24 hours): Crystallizes by 24 hour
XRPD (solid form) (up to 2 hours): Amorphous (up to 2 hours
C, mg/mL Control (24 hour): Not
C, mg/mL Control (line with XRPD 'by about 4 hours'): 0.0183 mg/mL
C, mg/mL Control (line with XRPD 'up to 2 hours'): 0.025 mg/mL
